Earlier results on one compound are cited in patent US4000310A, “Pharmaceutical compositions containing 6-methyl-3,4-diphenyl-3,4,5,6-tetrahydro-2-pyrone or derivatives thereof” (Union Chimique Continentale-U.C.C, priority 1974, dated 1976).

In this data set the test system is animals. As to conditions: caffeine, general statement; cited from earlier work.

`Cn1c(=O)c2c(ncn2C)n(C)c1=O` [caffeine]: the sleep inhibiting effect result was “caffeine does”.
